Measurements published in patent US20170146538A1, “PRL-3 AS A BIOMARKER FOR THE PROGNOSIS OF CANCER AND A TARGET FOR THERAPY” (Agency for Science, Technology and Research, priority 2014, published 2017).

What was measured:
Format in all cases: cell-based, human
MOLM-14 cells = assay: Western blot analysis of MOLM-14 cells upon FLT3 inhibition; settings: various concentrations, 24 h, dose-dependent
Description: (§1) FIG. 2. […] Whole cell lysates were subjected to western blot analysis with indicated antibodies. GAPDH, loading control. A. (a-d) Western blot analysis of AML cells upon FLT3 inhibition. […] C. (a-b) Western blot analysis of AML cells upon Src inhibition.
(§2) Cells were lysed using modified RIPA buffer (50 mM Tris-HCl, 150 mM NaCl, 1% NP-40, pH 8.0, 1×protease inhibitor cocktail) and lysates were subjected to western blotting with indicated primary antibodies. Proteins recognized by the antibodies were detected using the Chemiluminescent Detection Kit (Pierce, Thermo Scientific, Rockford, Ill.).
(§3) Since STAT5 was known to be a critical downstream target of FLT3-ITD (Mizuki et al, 2000), we tested STAT5 expression level after treatment with FLT3-specific inhibitors; PKC412 or CEP-701 (Odgerel et al, 2007; Smith et al, 2004). […] We next examined whether FLT3-ITD-induced PRL-3 expression might be mediated by JAK or Src, two distinct upstream activators of STAT5 (Robinson et al, 2005; Spiekermann et al, 2003). […] To investigate the role of Src-mediated phosphorylation of STAT5 in FLT3-ITD positive AML cells. AML cells were treated with two distinct Src kinase inhibitors, SU6656 and PP2 (Blake et al, 2000; Nam et al, 2002).

TF1-ITD cells = assay: Western blot analysis of TF1-ITD cells upon FLT3 or Src inhibition; settings: various concentrations, 24 h, dose-dependent
Description: as §1, §2, §3

TF1-PRL-3 cells = assay: MTS cell viability assay of TF1-PRL-3 cells treated with inhibitors; settings: 72 hr; for reduction in cell number compared to DMSO-treated control cells: 5 μM
Source text: FIG. 4. PRL-3 specifically activates c-Jun through ERK and JNK signaling pathways. A. SEAP reporter assay results measuring AP-1 activity in TF-1 cells overexpressing GFP (TF1-GFP) or GFP-PRL-3 (TF1-PRL-3) (mean±SD, n=3). B. (a-b) PRL-3 specifically upregulates c-Jun but not c-Fos. (a) Western blot analysis of TF1-GFP, TF1-PRL-3 and TF1-ITD cells. (b) Western blot analysis after knock-down of endogenous PRL-3 in TF1-ITD cells. GAPDH, loading control. NS, control non-silencing siRNA. C. (a-d) PRL-3-mediated upregulation of c-Jun is dependent on ERK and JNK pathways. (a) Western blot analysis after knock-down of endogenous PRL-3 in TF1-ITD and MOLM-14 cells. (b) Western blot analysis of TF1-GFP and TF1-PRL-3 cells. (c-d) Western blot analysis after knock-down of ERK1/2 or JNK in TF1-PRL-3 cells. GAPDH, loading control. NS, control non-silencing siRNA. D. […] Error bars represent the mean±SD from three independent experiments. AML Cells (1×10^4) were seeded into each well of 96-well tissue culture plates in 100 μl growth media and viable cells were measured after seeding with different inhibitors for 72 hr using the CellTiter^96 Aqueous cell proliferation assay kit. (Promega). Briefly, an aliquot of 20 μl MTS mixture was added at the indicated time of assay and reactions were performed at 37° C. for 2 hours. And absorbance was read at 490 nm wavelength using TECAN microplate reader. After establishment of linear relationship between cell numbers and absorbance from each cell line, acquired absorbance converted to cell number.

Row | SMILES | PRL-3 protein levels (TF1-ITD cells) | phosphorylation of STAT5 (TF1-ITD cells) | phosphorylation of Src (TF1-ITD cells) | reduction in cell number compared to DMSO-treated control cells (TF1-PRL-3 cells) | other results
1 | CO[C@@H]1[C@H](N(C)C(=O)c2ccccc2)C[C@H]2O[C@]1(C)n1c3ccccc3c3c4c(c5c6ccccc6n2c5c31)C(=O)NC4 [PKC412] | inhibited | inhibited | inhibited |  | PRL-3 protein levels (MOLM-14 cells): inhibited; phosphorylation of FLT3 (MOLM-14 cells): inhibited; phosphorylation of STAT5 (MOLM-14 cells): inhibited; phosphorylation of Src (MOLM-14 cells): inhibited; phosphorylation of FLT3 (TF1-ITD cells): inhibited
2 | CC(C)(C)n1nc(-c2ccc(Cl)cc2)c2c(N)ncnc21 [PP2] | inhibited | inhibited | inhibited |  | 
3 | Oc1c2ccccc2c2c3c(cccc13)N=N2 [SP600125] |  |  |  | around 50% | 
4 | CN(C)S(=O)(=O)c1ccc2c(c1)/C(=C/c1cc3c([nH]1)CCCC3)C(=O)N2 [SU6656] | inhibited | inhibited | inhibited |  | 
5 | N#CC(=C(/N)Sc1ccccc1N)/C(C#N)=C(\N)Sc1ccccc1N [U0126] |  |  |  | around 50% | 
6 | COc1cc(/C=C/C(=O)CC(=O)/C=C/c2ccc(O)c(OC)c2)ccc1O [curcumin] |  |  |  |  | cell number, % of DMSO-treated cells (TF1-PRL-3 cells; 15 μM): around 50%
